Patent US12648948B2, “Methods and compositions for treating cancer” (UNITED STATES GOVERNMENT AS REPRESENTED BY THE DEPARTMENT …, priority 2017, dated 2026)

Experiments:
[1] = system: GAS6; experiment: GAS6 expression (real time PCR, ELISA, Western blot); format: cell-based, human; details: erlotinib; patient derived neurospheres and established GBM cell lines
Protocol: Total RNA was isolated by TRIzol Reagent (Ambion). cDNA Reverse Transcription were performed by using High-Capacity cDNA Reverse Transcription Kit (Applied Biosystems). […] Each PCR was carried out in triplicate in a 20 μl volume using SYBR Green Master Mix (Applied Biosystems) for 15 minutes at 95° C. for initial denaturing, followed by 40 cycles of 95° C. for 15 s and 60° C. for 60 s in ViiA 7 Real-Time PCR System (Applied Biosystems). At least two independent experiments were done. Values for each gene were normalized to expression levels of GAPDH mRNA. The following primers were used: TNF, [NT] ID NO:3) and [NT] ID NO:4); […] GAPDH, [NT] ID NO:7) and [NT] ID NO:8). […] After 48 hours, supernatant and cell lysates were collected. Supernatant medium was concentrated 5-10-fold with Pierce protein concentrator (ThermoFisher). TNF protein concentration in supernatant, cell lysates and tissue extracts was determined by ELISA using a commercial TNF detection kit (ThermoFisher) according to manufacturer's instructions. Additionally, GAS6 protein concentration in supernatant was measured by ELISA kit (LifeSpan BioSciences).

[2] = system: GBM9 subcutaneous tumors; experiment: Subcutaneous GBM9 xenograft tumor growth; format: in vivo, athymic nude mice; details: erlotinib 50 mg/kg oral gavage, SP600125 40 mg/kg i.p., thalidomide 150 mg/kg i.p., daily for 10 days
Protocol: 4 to 6 weeks old female athymic nude mice were purchased from Charles River Laboratories. The mice were housed in plastic cages (4-5 mice per cage) in a room with a 12 hour day-night cycle. 1×10^6 GBM9 cells were subcutaneously injected into the right flank of each nude mouse. […] The mice were randomly divided into control and treatment groups, mice were treated with drugs using the indicated doses. For combination treatment, both drugs were given concurrently for indicated periods. Tumor dimensions were measured by caliper every two days and tumor volumes calculated by the formula: volume=length×width×width/2. Mice were sacrificed when tumors reached over […] or 24 days from the first day of treatment.

[3] = system: Met; experiment: Western blot, Met activation in glioma cells; format: cell-based, human; details: erlotinib; established cell lines and patient derived neurospheres
Protocol: (§1) Western blot analysis was performed according to standard protocols.

[4] = system: JNK; experiment: Western blot, JNK activation (phosphorylation of JNK) in glioma cells; format: cell-based, human; details: erlotinib; patient derived neurospheres and established GBM cell lines
Protocol: as §1

[5] = system: NF-κB transcriptional activity; experiment: NF-κB luciferase reporter assay; format: cell-based, human; details: erlotinib 24 h, 100 nM GBM9, 1 uM U87EGFRwt; LPS 1 μg/ml
Protocol: Cells were plated in 48 well dishes to 70%-80% confluence followed by with […] or 3xAP1pGL3 reporter plasmid using lipofectamine 2000. A dual-luciferase reporter assay system was used according to manufacturer's instructions (Promega, Madison WI). Firefly luciferase activity was measured in a luminometer and normalized on the basis of Renilla luciferase activity. Experiments were done in triplicate and 3 independent experiments were done.

[6] = system: Axl; experiment: Western blot, Axl activation (pAxl) in glioma cells; details: erlotinib 48 h; patient derived GBM neurospheres and all cell lines examined
Protocol: Western blot analysis was performed according to standard protocols. In all experiments, before the addition of EGF or erlotinib established cells were cultured overnight in serum free DMEM and primary GBM neurospheres were EGF starved overnight. Cells not treated with EGF or erlotinib were also serum or EGF starved. EGFR (06-847, 1 μg/ml) antibody was from Millipore. pEGFR-1068 (2236), pERK (4376) ERK (4695), p34 (9251), JNK (9252), STAT3(9139), pAkt (0915) and pSTAT3 (9131) antibodies were from Cell Signaling Technology (Danvers, MA) were used a 1/1000 dilution; TNFR1 (sc-8436), ERK2 (sc-154). Akt (sc-1619), and β-Actin (sc-47778) were from Santa Cruz Biotechnology (Dallas, TX) were used at a concentration of 1 μg/ml. GAS6 (AF885), pAxl (AF2228) and Axl (AF154) were from R&D Biosystems (Minneapolis, MN) were used at a concentration of 1 μg/ml c-JUN antibody (ab31419) was from Abcam (Cambridge, MA) and was used at 2 μg per chromatin IP reaction.

[7] = system: GBM9 intracranial tumors; experiment: Orthotopic (intracranial) GBM9 model, survival and bioluminescence imaging; details: erlotinib 50 mg/kg oral gavage and/or thalidomide 150 mg/kg i.p., 10 days; repeated with afatinib
Protocol: For the orthotropic model, 1×10^5 GBM9 cells expressing firefly luciferase were injected into the right corpus striatum of the brains of 6-8-week-old nude mice using a stereotactic frame. […] The mice were treated with erlotinib 50 mg/kg by oral gavage and/or intraperitoneal (i.p.) injection of 150 mg/kg thalidomide for 10 consecutive days. Bioluminescence imaging (BLI) was performed to record the growth of tumor every 5 days. Kaplan-Maier survival curves were calculated using GraphPad Prism 7.0 software. Mice were monitored and sacrificed when neurological signs appeared or after 40 days.

[8] = system: GAS6 promoter; experiment: ChIP assay, c-Jun on the GAS6 promoter; format: cell-based, human; details: erlotinib 1 μM, 24 h; GBM9 and U87EGFRwt cells
Protocol: GBM9 and U87EGFRwt cells were cultured in 15 cm plate per reaction for assay. ChIP assays were carried out using ChIP chromatin immunoprecipitation kit (Millipore) following manufacturer's instructions. The ChIP-enriched DNA samples were quantified by PCR using Platinum Taq DNA polymerase (Invitrogen). Putative AP-1 binding sites on GAS6 promoter were predicted by Using TFBIND program. The following primer pairs covering AP-1 sites were used: 5′-[…]-3′ (SEQ ID NO:1) and 5′-[…]-3′ (SEQ ID NO:2).

[9] = system: GBM9 and GBM39 neurospheres; experiment: AlamarBlue cell viability assay, patient derived GBM neurospheres; format: cell-based, human; details: 72 h
Protocol: Cell viability assay was conducted using AlamarBlue cell viability assay kit (ThermoFisher) following manufacturer's protocol. Cells were cultured in Corning 96-well black plates with clear bottom (5000 cells/well). Drugs were added to cells for 72 hour following detection using POLARstar Omega Microplate Reader (excitation at 544 nm and emission at 590 nm) (BMG LABTECH, Germany).

[10] = Toxicity and body weight of treated tumor-bearing mice; details: in combination with thalidomide or SP600125, total of 10 days

C#Cc1cccc(Nc2ncnc3cc(OCCOC)c(OCCOC)cc23)c1 [erlotinib]
GAS6 expression [1]: increase in GAS6
Growth of subcutaneous tumors [2]: no significant effect on the growth of tumors
Met activation [3]: induces activation of Met in established cell lines, but only in one patient derived neurosphere 987
JNK activation (phosphorylation of JNK) [4]: activation of INK
NF-κB reporter / transcriptional activity [5]: does not result in an increase in NF-κB reporter activity
Axl phosphorylation [6]: phosphorylation of the RTK Axl
Survival of mice [7]: neither erlotinib nor thalidomide alone had a significant effect
Binding of c-Jun to the GAS6 promoter [8]: binding of cJun to the GAS6 promoter
Cell viability, erlotinib alone at low concentration ([9]; erlotinib 100 nM): resistant to EGFR inhibition
Cell viability, erlotinib alone at 1 μM ([9]; erlotinib 1 μM): significant cell death
Short term toxicity [10]: without significant immediate short term toxicity
